# Like-named read-outs stand apart in the source and are kept apart here.
# Tests used:
# [1] = Stability in simulated gastric fluid (SGF) and simulated intestinal fluid (SIF); format: in vitro ADME; conditions: SGF with pepsin and SIF with pancreatin pH 6.8, 125 mg/L, 37 °C
# Procedure: For the SGF solution, 5 g of pepsin was dissolved in 1 L of deionized water with the addition of hydrochloric acid to achieve a pH of 1.8. The SIF solution consisted of 6.8 g of monopotassium phosphate and 10 g of pancreatin dissolved in 1 L of deionized water, maintaining a pH of 6.8.
# [2] = biological target: T1, Caco-2 cell apical membrane-associated alkaline phosphatase (ALP) (Homo sapiens, UniProt P09923); assay: Dephosphorylation by Caco-2 cell apical membrane-associated ALP; format: cell-based; conditions: Caco-2 cells, HBSS, 37 °C, 120 min incubation, initial concentration 20 μM, read-out: elimination half-life (T1/2) of dephosphorylation
# T1 construct: The Caco-2 cells (human colon adenocarcinoma, clone of Caco-2) were obtained from the Bioresource Collection and Research Center; endogenous in cells; host or cells: Caco-2 (human colon adenocarcinoma) cells, intact, 5 days in culture
# T1 sequence (P09923 20-503 limits assumed): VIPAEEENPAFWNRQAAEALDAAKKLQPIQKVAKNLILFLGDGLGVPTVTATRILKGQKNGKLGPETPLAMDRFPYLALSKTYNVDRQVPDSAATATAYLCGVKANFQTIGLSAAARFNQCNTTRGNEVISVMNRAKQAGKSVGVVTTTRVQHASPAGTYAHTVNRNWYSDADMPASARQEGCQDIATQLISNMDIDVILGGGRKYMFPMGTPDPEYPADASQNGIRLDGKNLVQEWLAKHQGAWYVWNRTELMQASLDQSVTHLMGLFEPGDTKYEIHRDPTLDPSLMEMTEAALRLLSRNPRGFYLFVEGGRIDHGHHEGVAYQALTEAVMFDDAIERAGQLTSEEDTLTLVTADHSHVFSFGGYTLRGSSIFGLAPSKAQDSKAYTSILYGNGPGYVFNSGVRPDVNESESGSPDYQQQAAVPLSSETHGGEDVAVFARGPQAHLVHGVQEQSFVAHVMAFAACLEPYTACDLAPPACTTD
# Procedure: The Caco-2 cells (human colon adenocarcinoma, clone of Caco-2) were obtained from the Bioresource Collection and Research Center, Hsinchu, Taiwan. Caco-2 cells were cultured according to previously established protocols. For the dephosphorylation study, the cells were seeded onto 6-well plates at a density of 3.0 × 10^5 cells per well in 2 mL of fresh medium. The medium was refreshed every 48 h. […] The plates were then incubated at 37 °C, and aliquots of 200 μL were collected at 15, 30, 60, and 120 min. […] The supernatants were analyzed by HPLC to quantify the relative content of LutPs to Lut and ApnPs to Apn. To assess the activity of human intestinal alkaline phosphatase (ALP), a positive control of fosphenytoin, a phenytoin phosphate prodrug, was used.
# The HPLC system employed in this study consisted of the Waters Alliance 2695 separation module (Waters, Milford, MA, USA), a YMC-Pack ODS-AM C18 column (4.6 × 250 mm, 5 µm) with a guard cartridge (Hichrom 5C18, Berkshire, UK) and a Waters 2487 Dual-Absorbance Detector (Waters, Milford, MA, USA). Chromatographic separation was conducted at a temperature of 30 °C, utilizing a linear gradient mobile phase consisting of 0.1% phosphoric acid in H2O (solvent A) and 0.1% phosphoric acid in acetonitrile (solvent B). The elution gradient programs for quantifying each compound are detailed in Supplementary Materials Table S1. Luteolin and its derivatives were detected at a wavelength of 354 nm, while apigenin and its derivatives were detected at a wavelength of 270 nm, and fosphenytoin at 210 nm. The quantitation was conducted using the external standard method with calibration curves, and the quality was ensured by maintaining an R^2 value exceeding 0.99.
# [3] = Oral pharmacokinetics of Apn, Apn7G and ApnPs in SD rats; format: in vivo, Sprague Dawley (SD) rats
# Procedure: (§1) (Taipei, Taiwan). and housed individually. The facilities were maintained at 25 °C, at constant humidity, and a 12 h light/dark cycle with ad libitum access to food and water and acclimated for at least 7 days prior to any experiments. Rats were fasted for 24 h before the experiments, with water freely available. For the pharmacokinetic study, rats were randomly assigned to three groups for the tests (n = 4 for Lut-relevant groups; n = 4-5 for Apn-relevant groups). […] The Apn-relevant groups received Apn aqueous suspension, Apn7G aqueous suspension, or ApnPs solution. Dosages were designed as 174.7 μmol/kg for Lut and 185.02 μmol/kg for Apn, based on the human dietary supplement dosage of 500 mg/day, translated by the body surface area index as per FDA guidelines. […] Lut and Apn were quantified in biological samples after enzymatic hydrolysis of their conjugated forms. The plasma was acidified to pH 5 by adding 10 μL of 0.5 M acetate buffer. […] The mixture was fractionated using a Sep-Pak C18 cartridge (Waters, Milford, MA, USA), eluted in order with 0.01 M oxalic acid, water/methanol/0.5 M oxalic acid (88:10:2), distilled water, and 100% methanol. The methanol fraction was adjusted to a constant volume of 500 μL and filtered with a 0.22 μm membrane to remove insoluble matter, and, subsequently, the filtrate underwent UPLC-MS/MS. The levels of Lut and Apn in the plasma were quantified using a Waters ACQUITY UPLC I-Class system (Waters, Milford, MA, USA) equipped with an XEVO TQS-microTriple-Quadrupole Tandem Mass Spectrometer (Waters, Milford, MA, USA). Chromatographic separation was achieved using a Thermo Hypersil GOLD aQ C18 (50 × 2.1 mm, 1.9 μm) column (Thermo Fisher Scientific, Waltham, MA, USA). The injection volume was 3 μL. […] The temperature of the column oven was set at 40 °C. The MRM mode in negative mode was used, and the MS parameter was set as follows. The most intense precursor-to-product transitions were selected: m/z 285→133 for luteolin, and m/z 269→107 and m/z 269→41 for apigenin and genistein, respectively. The source voltage was 1500 V. The desolvation temperature was 400 °C, and the desolvation gas flow was 800 L/h. The source temperature was 150 °C. The contents of Lut and Apn were calculated by the calibration curve and the response obtained by the peak area of them against the internal standard. Details on the multiple reaction monitoring (MRM) conditions, elution gradient programs, and UPLC method validation are provided in the Supplementary Materials Tables S2 and S3. The pharmacokinetic parameters, including maximum concentration (Cmax), time to reach maximum concentration (Tmax), and area under curve (AUC), were determined using the pharmacokinetic software WinNonlin Standard Edition v1.1 (Pharsight Corp., Mountainview, CA, USA).
# [4] = Dissolution study, USP apparatus II (paddle method); format: physicochemical; conditions: for dissolution rate in bile extract solution: bile extract solution as dissolution medium; for dissolution rate after 60 min: standard dissolution medium, 0.05 M phosphate buffer pH 6.8, 37 °C, 20 μM
# Procedure: To investigate the influence of bile extract (comprising bile salts and phospholipids) on the dissolution of these compounds, bile extract solutions were prepared according to the protocol described by Makioka et al. This involved dissolving 12 g of porcine bile extract and 8.4 g of sodium bicarbonate in 1 L of deionized water, which served as the dissolution medium. After the sample was placed in the dissolution medium, 1 mL aliquots of the medium were collected at 5, 10, 20, 30, 45, and 60 min of incubation, and filtered through a 0.2 μm polyethersulfone filter (Pall Corp., New York, NY, USA). Subsequently, 500 μL of each sample was acidified with 5 μL of 2 M acetic acid and stored at −20 °C until HPLC analysis.
# [5] = design: method as in PMID 32785007; conditions: rats, oral 10 mg/kg; read-out: maximum plasma concentration (Cmax); cited from earlier work
# [6] = cited from earlier work
# [7] = Aqueous solubility, classical shake-flask method; conditions: ultrapure water
# Excerpt: Then, the resulting supernatant (the saturated solution) was aliquoted and diluted carefully and properly to perform the quantitative analysis using HPLC.
# [8] = Oral pharmacokinetics of Lut, Lut7G and LutPs in SD rats; format: in vivo, Sprague Dawley (SD) rats
# Procedure: as §1
# [9] = design: method as in doi:10.1016/j.jff.2017.05.056; conditions: rats, 20 μmol/kg (5.725 mg/kg) via gavage; cited from earlier work
# [10] = rat, in vivo, po, 185.02 umol/kg
# [11] = rat, in vivo, po, 174.7 umol/kg
smiles,measurement,setting,value
"O=c1cc(-c2ccc(OP(=O)(O)O)cc2)oc2cc(O)cc(O)c12 [Apn4′P, apigenin 4′-O-phosphate]",retained relative content after 240 min of incubation,[1],over 80%
same,half-life at 20 μM,[2],1.07 h
"O=c1cc(-c2ccc(O)cc2)oc2cc(O[C@@H]3O[C@H](CO)[C@@H](O)[C@H](O)[C@H]3O)cc(O)c12 [Apn7G, apigenin 7-O-glucoside]",Apn conjugates AUC0–t,[3]; [10],"13,243.27 nM·h"
same,Apn conjugates Tmax,[3]; [10],2.00 h
same,Lut (metabolite) conjugates AUC0–t,[3]; [10],8.78863 µM·h
same,Lut (metabolite) conjugates Tmax,[3]; [10],2.00 h
same,aglyconic Apn AUC0–t,[3]; [10],0.37171 µM·h
same,aglyconic Apn Tmax,[3]; [10],0.5 h
same,aglyconic Lut (metabolite) AUC0–t,[3]; [10],0.01854 µM·h
same,aglyconic Lut (metabolite) Tmax,[3]; [10],1.00 h
same,overall Apn AUC0–t,[3]; [10],"13,614.98 nM·h"
same,overall Apn Tmax,[3]; [10],2.00 h
same,overall Lut (metabolite) AUC0–t,[3]; [10],8.87017 µM·h
same,overall Lut (metabolite) Tmax,[3]; [10],2.00 h
"O=c1cc(-c2ccc(O)cc2)oc2cc(OP(=O)(O)O)cc(O)c12 [Apn7P, apigenin 7-O-phosphate]",retained relative content after 240 min of incubation,[1],76%
same,half-life at 20 μM,[2],0.73 h
"O=c1cc(-c2ccc(O)cc2)oc2cc(O)cc(O)c12 [Apn, 4′,5,7-trihydroxyflavone]",AUC(0-t),"[3]; male, Sprague Dawley, 185.02 umol/kg, rat plasma, oral 185.02 µmol/kg, 0 to 10 h, read-out: aglyconic Apn AUC0–t",0.113 µM·h
same,Cmax,"[3]; male, Sprague Dawley, 185.02 umol/kg, rat plasma, oral 185.02 µmol/kg, mean ± SE, read-out: aglyconic Apn Cmax",14 ± 1.27 nM
same,aglyconic Apn Tmax,"[3]; rat plasma, oral 185.02 µmol/kg",0.5 h
same,dissolution rate in bile extract solution,[4],12.5%
same,dissolution rate after 60 min,[4],0.24%
same,Cmax,[5],80 nM
same,absolute oral bioavailability,[6],0.71%
same,solubility,[7],1.2 µg/mL
"O=c1cc(-c2ccc(O)c(OP(=O)(O)O)c2)oc2cc(O)cc(O)c12 [Lut3′P, luteolin 3′-O-phosphate]",retained relative content after 240 min of incubation,[1],over 80%
same,half-life at 20 μM,[2],0.693 h
"O=c1cc(-c2ccc(OP(=O)(O)O)c(O)c2)oc2cc(O)cc(O)c12 [Lut4′P, luteolin 4′-O-phosphate]",retained relative content after 240 min of incubation,[1],over 80%
same,half-life at 20 μM,[2],0.463 h
"O=c1cc(-c2ccc(O)c(O)c2)oc2cc(O[C@@H]3O[C@H](CO)[C@@H](O)[C@H](O)[C@H]3O)cc(O)c12 [Lut7G, luteolin 7-O-glucoside]",AUC0–∞ of overall Lut,"[8]; rat, in vivo, po",35.419 µM·h
same,aglyconic luteolin AUC0–t,[8]; [11],2.00935 µM·h
same,aglyconic luteolin Tmax,[8]; [11],1.00 h
same,luteolin conjugates AUC0–t,[8]; [11],"31,336.03 nM·h"
same,luteolin conjugates Tmax,[8]; [11],4.00 h
same,overall luteolin AUC0–t,[8]; [11],"33,111.44 nM·h"
same,overall luteolin Tmax,[8]; [11],2.00 h
"O=c1cc(-c2ccc(O)c(O)c2)oc2cc(OP(=O)(O)O)cc(O)c12 [Lut7P, luteolin 7-O-phosphate]",retained relative content after 240 min of incubation,[1],73%
same,half-life at 20 μM,[2],0.287 h
"O=c1cc(-c2ccc(O)c(O)c2)oc2cc(O)cc(O)c12 [Lut, 3′,4′,5,7-tetrahydroxyflavone]",brain tissue concentration,[9],less than 0.1 nmol/g
same,dissolution rate in bile extract solution,[4],10.2%
same,dissolution rate after 60 min,[4],3.5%
same,Cmax,"[8]; male, Sprague Dawley, 174.7 umol/kg, rat plasma, oral 174.7 µmol/kg, mean ± SE, read-out: aglyconic luteolin Cmax",140 ± 194 nM
same,AUC(0-t),"[8]; male, Sprague Dawley, 174.7 umol/kg, rat plasma, oral 174.7 µmol/kg, zero to 8 h, read-out: aglyconic luteolin AUC0–t",0.635 µM·h
same,Tmax,"[8]; male, Sprague Dawley, 174.7 umol/kg, rat plasma, oral 174.7 µmol/kg, read-out: aglyconic luteolin Tmax",1 h
same,absolute oral bioavailability,[6],4.10%
same,solubility,[7],13 µg/mL
O=C1NC(c2ccccc2)(c2ccccc2)C(=O)N1COP(=O)(O)O [fosphenytoin],half-life at 20 μM,[2],1.67 h

# — article PMC11727040, “Monophosphate Derivatives of Luteolin and Apigenin as Efficient Precursors with Improved Oral Bioavailability in Rats” (Antioxidants, 2024)
